Assay results taken from PubChem BioAssay (NCI).
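Cells were grown in 96-well plates and exposed to each compound for 48 hours at five concentrations; endpoints were interpolated linearly between bracketing concentrations, or set to the highest concentration if not reached. TGI marks complete inhibition of growth.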

Assays:
Assay in all cases: NCI tumour cell line growth inhibition, 48 h
DMS 114 small cell lung = test system: DMS 114 small cell lung
CCRF-CEM leukemia = test system: CCRF-CEM leukemia
SF-295 CNS = test system: SF-295 CNS
SK-MEL-28 melanoma = test system: SK-MEL-28 melanoma
DLD-1 colon = test system: DLD-1 colon
M19-MEL melanoma = test system: M19-MEL melanoma
IGROV1 ovarian = test system: IGROV1 ovarian
HT29 colon = test system: HT29 colon
UO-31 renal = test system: UO-31 renal
OVCAR-8 ovarian = test system: OVCAR-8 ovarian
HL-60(TB) leukemia = test system: HL-60(TB) leukemia
A498 renal = test system: A498 renal
NCI-H226 lung = test system: NCI-H226 lung
U251 CNS = test system: U251 CNS
SF-539 CNS = test system: SF-539 CNS
OVCAR-3 ovarian = test system: OVCAR-3 ovarian
COLO 205 colon = test system: COLO 205 colon
SNB-75 CNS = test system: SNB-75 CNS
UACC-257 melanoma = test system: UACC-257 melanoma
KM20L2 colon = test system: KM20L2 colon
LOX IMVI melanoma = test system: LOX IMVI melanoma
SW-620 colon = test system: SW-620 colon
RPMI-8226 leukemia = test system: RPMI-8226 leukemia
SK-MEL-5 melanoma = test system: SK-MEL-5 melanoma
ACHN renal = test system: ACHN renal
SR leukemia = test system: SR leukemia
NCI-H23 lung = test system: NCI-H23 lung
LXFL 529 NSCLC = test system: LXFL 529 NSCLC
M14 melanoma = test system: M14 melanoma
SK-MEL-2 melanoma = test system: SK-MEL-2 melanoma
SNB-19 CNS = test system: SNB-19 CNS
K-562 leukemia = test system: K-562 leukemia
786-0 renal = test system: 786-0 renal
RXF-631 renal = test system: RXF-631 renal
OVCAR-4 ovarian = test system: OVCAR-4 ovarian
DMS 273 small cell lung = test system: DMS 273 small cell lung
MALME-3M melanoma = test system: MALME-3M melanoma
HCC-2998 colon = test system: HCC-2998 colon
SF-268 CNS = test system: SF-268 CNS
TK-10 renal = test system: TK-10 renal
XF 498 CNS = test system: XF 498 CNS
MOLT-4 leukemia = test system: MOLT-4 leukemia
HCT-116 colon = test system: HCT-116 colon
A549 NSCLC = test system: A549 NSCLC
HCT-15 colon = test system: HCT-15 colon
NCI-H460 lung = test system: NCI-H460 lung
RXF 393 renal = test system: RXF 393 renal
HOP-62 NSCLC = test system: HOP-62 NSCLC
UACC-62 melanoma = test system: UACC-62 melanoma
EKVX NSCLC = test system: EKVX NSCLC
SN12C renal = test system: SN12C renal
OVCAR-5 ovarian = test system: OVCAR-5 ovarian
HOP-92 NSCLC = test system: HOP-92 NSCLC
SK-OV-3 ovarian = test system: SK-OV-3 ovarian
CAKI-1 renal = test system: CAKI-1 renal
KM12 colon = test system: KM12 colon
NCI-H522 lung = test system: NCI-H522 lung
SNB-78 CNS = test system: SNB-78 CNS

Measured: TGI

COC(=O)CC1NC(=O)C1C(C)(OC)OC (stereo not drawn)
not listed: OVCAR-5 ovarian | HOP-92 NSCLC | SK-OV-3 ovarian | CAKI-1 renal | KM12 colon | NCI-H522 lung | SNB-78 CNS
> 100 µM: all other assays above

C1=CC(=NN=P(c2ccccc2)(c2ccccc2)c2ccccc2)C=C1
not listed: SF-295 CNS | A498 renal | NCI-H226 lung | U251 CNS | SF-539 CNS | SR leukemia | RXF-631 renal | HCT-116 colon | SNB-78 CNS
> 100 µM: all other assays above

c1cnc2nc3n(c2c1)CSC3
not listed: SR leukemia | SNB-19 CNS | RXF-631 renal | DMS 273 small cell lung | HCT-116 colon
> 100 µM: all other assays above
